Assay results as given in patent US20080125409A1, “1,5-Diheterocycle-1H-Triazole Derivative” (DAIICHI PHARMACEUTICAL CO., LTD., priority 2004, published 2008).

How the values were obtained:
[1] = molecular target: T1, COX-1 (Ovis aries, UniProt P05979); assay: Cyclooxygenase-1 (COX-1) inhibitory effect (Cayman COX Inhibitor Screening Assay Kit, PGF2α ELISA); assay type: biochemical; conditions: in the presence of 50 μM of the compound; PGF2α production without compound regarded as 100%; read-out: COX inhibitory activity COX-1 (rate of COX-1 inhibition)
T1 construct: purchased Cayman Chemical Company 560101 and 560121
T1 sequence (P05979 25-600): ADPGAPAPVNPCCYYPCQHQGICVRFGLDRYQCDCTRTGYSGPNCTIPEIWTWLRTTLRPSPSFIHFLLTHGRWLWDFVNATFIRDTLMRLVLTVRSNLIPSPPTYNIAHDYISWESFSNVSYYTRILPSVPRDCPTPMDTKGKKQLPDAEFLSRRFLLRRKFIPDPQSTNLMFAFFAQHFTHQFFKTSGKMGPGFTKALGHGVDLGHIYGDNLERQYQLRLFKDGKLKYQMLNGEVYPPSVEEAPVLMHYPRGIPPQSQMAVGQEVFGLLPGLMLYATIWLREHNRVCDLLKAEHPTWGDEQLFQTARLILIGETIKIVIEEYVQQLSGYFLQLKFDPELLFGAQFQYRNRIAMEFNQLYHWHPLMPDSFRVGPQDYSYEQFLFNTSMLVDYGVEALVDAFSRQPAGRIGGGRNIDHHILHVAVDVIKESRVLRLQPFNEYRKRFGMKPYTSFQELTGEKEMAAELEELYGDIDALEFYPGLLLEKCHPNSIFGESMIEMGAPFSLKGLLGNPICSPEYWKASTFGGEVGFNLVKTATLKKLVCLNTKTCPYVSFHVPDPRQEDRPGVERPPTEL
Text: Cyclooxygenase-1 (COX-1) Inhibitory Effect
For the measurement of the COX-1 inhibitory activity of the compound of the Examples, a COX Inhibitor Screening Assay Kit manufactured by Cayman Chemical Company (Catalog Nos. 560101 and 560121) was used.
Before starting the measurement, a reaction buffer, heme, arachidonic acid, SnCl2, EIA buffer, a washing buffer, prostaglandin (PG)-screening EIA standard solution, PG-screening acetylcholinesterase (AchE), a tracer […], and PG-screening EIA antiserum were provided.
(1) Production of PGF2α by COX-1
A reaction solution containing the compound of the Examples (50 μM) and COX-1 was allowed to stand at 37° C. for 10 minutes, then 10 μl of arachidonic acid was added thereto, and the resultant mixture was allowed to stand at 37° C. for 2 minutes. After the reaction, 50 μl of 1 N hydrochloric acid was added to the reaction mixture to thereby stop the reaction, and 100 μl of a SnCl2 solution was added thereto. The resultant mixture was allowed to stand at room temperature for 5 minutes.
(2) Quantification of PGF2α by ELISA
50 μl of antiserum (rabbit anti-PGF2α antibody) was added to each of the wells of a 96-well plate coated with mouse anti-rabbit IgG. Then, 50 μl of a solution prepared by diluting the aforementioned reaction solution for the production of PGF2α to 2000-folds, and 50 μl of an AchE tracer were added sequentially to the wells, and the plate was allowed to stand at room temperature for 18 hours. Each well was washed 5 times with the washing buffer to remove excessive AchE tracer, and then 200 μl of Ellman reagent was added to each well. The plate was kept in a dark room for 60 minutes, and then, absorbance at 405 nm was measured.
(3) Calculation of Inhibitory Activity of the Compound of the Examples
A standard curve was produced using a PG-screening EIA standard solution, and the amount of PGF2α production was determined from the absorbance obtained in the above. The rate of COX-1 inhibition in the presence of 50 μM of the compound of the Examples was calculated.

[2] = tested on: platelet-rich plasma (PRP), collagen-induced platelet aggregation; assay: Collagen-stimulated platelet aggregation inhibition in human platelet-rich plasma; assay type: cell-based; conditions: 2 min, 2 min at 37° C. with compound
Experimental: Platelet Aggregation Suppressing Action
Human blood was collected using a 3.13% solution of sodium citrate as an anticoagulant, in a volume 1/10 of the blood volume, and was centrifuged at 180 g for 10 minutes to separate platelet-rich plasma (PRP) from the blood. The PRP in the upper layer was isolated, and then the lower layer was centrifuged at 1600 g for 10 minutes to isolate the platelet-poor plasma (PPP) in the upper layer. 1 μL of a solution of the compound of the Examples) was added to 200 μL of the PRP, and the mixture was allowed to stand for 2 minutes at 37° C. Then, 2 μL of collagen was added thereto, so as to induce platelet aggregation. The rate of platelet aggregation was measured using a PAM-12C (SSR Engineering). By taking the light transmittance of the PPP as the value indicating 100% aggregation, the rates of platelet aggregation at various concentrations of the compound of the Examples were determined, and the IC50 value was calculated.

Work on `COc1ccc(-n2nc(C(=O)NC(C)(C)C)nc2-c2ccccn2)cn1` [Example 1, N-tert-Butyl-1-(6-methoxy-3-pyridyl)-5-(2-pyridyl)-1H-1,2,4-triazole-3-carboxamide] yielded an inhibition at 50 µM [1] of 7.5% and an IC50 [2] of 40 nM.

`COc1ccc(-n2nc(C(=O)NC(C)(C)C)nc2-c2ccc(C#N)cn2)cn1` [Example 3, N-tert-Butyl-5-(5-cyano-2-pyridyl)-1-(6-methoxy-3-pyridyl)-1H-1,2,4-triazole-3-carboxamide] gave an inhibition at 50 µM [1] of 19.5% and an IC50 [2] of 160 nM.

Work on `COc1ccc(-n2nc(C(=O)NC(C)(C)C)nc2-c2cnc(C)cn2)cn1` [Example 6, N-tert-Butyl-1-(6-methoxy-3-pyridyl)-5-(5-methyl-2-pyrazinyl)-1H-1,2,4-triazole-3-carboxamide] yielded an inhibition at 50 µM [1] of -15.8% and an IC50 [2] of 170 nM.

Molecule `COc1ccc(-n2nc(C(=O)NC(C)(C)C)nc2-c2ccc(Cl)cn2)cn1` [Example 11, N-tert-Butyl-5-(5-chloro-2-pyridyl)-1-(6-methoxy-3-pyridyl)-1H-1,2,4-triazole-3-carboxamide] has an IC50 [2] of 88 nM.

Work on `COc1ccc(-n2nc(C(=O)NC(C)(C)C)nc2-c2ccc(N)cn2)cn1` [Example 14, 5-(5-Amino-2-pyridyl)-1-(6-methoxy-3-pyridyl)-1H-1,2,4-triazole-3-carboxylic acid N-tert-butylamide] yielded an IC50 [2] of 130 nM.

For `COc1ccc(-n2nc(C(=O)NCC(C)(C)C)nc2-c2ccc(C)cn2)cn1` [Example 18, 1-(6-Methoxy-3-pyridyl)-5-(5-methyl-2-pyridyl)-1H-1,2,4-triazole-3-carboxylic acid N-neopentylamide], the IC50 [2] was 13 nM.

In the case of `COc1ccc(-n2nc(C(=O)NC(C)C)nc2-c2ccccn2)cn1` [Example 22, N-isoPropyl-1-(6-methoxy-3-pyridyl)-5-(2-pyridyl)-1H-1,2,4-triazole-3-carboxamide], the IC50 [2] is reported as 530 nM.

`COc1ccc(-n2nc(C(=O)N3CCN(C)CC3)nc2-c2ccc(C)cn2)cn1` [Example 29, 1-[1-(6-Methoxy-3-pyridyl)-5-(5-methyl-2-pyridyl)-1H-1,2,4-triazole-3-carbonyl]-4-methylpiperazine] showed an inhibition at 50 µM [1] of -23.1% and an IC50 [2] of 220 nM.

`Cc1ccc(-c2nc(C(=O)NC(C)(C)C)nn2-c2ccc(C)nc2)nc1` [Example 35, N-tert-Butyl-1-(6-methyl-3-pyridyl)-5-(5-methyl-2-pyridyl)-1H-1,2,4-triazole-3-carboxamide] showed an inhibition at 50 µM [1] of -17.2% and an IC50 [2] of 120 nM.

Work on `COc1ccc(-n2nc(C(=O)N3CCC[C@H]3CF)nc2-c2ccc(C)cn2)cn1` [Example 37, (2S)-1-[1-(6-Methoxy-3-pyridyl)-5-(5-methyl-2-pyridyl)-1H-1,2,4-triazole-3-carbonyl]-2-fluoromethylpyrrolidine] yielded an inhibition at 50 µM [1] of 6.6% and an IC50 [2] of 16 nM.

For `COc1ccc(-n2nc(C(=O)N3CCOCC3)nc2-c2ccc(C)cn2)cn1` [Example 38, 4-[1-(6-Methoxy-3-pyridyl)-5-(5-methyl-2-pyridyl)-1H-1,2,4-triazole-3-carbonyl]morpholine], the inhibition at 50 µM [1] was 0.9% and the IC50 [2] was 250 nM.

Work on `COc1ccc(-n2nc(C(=O)N3CCC(F)(F)CC3)nc2-c2ccc(CO)cn2)cn1` [Example 41, 1-[5-(5-Hydroxymethyl-2-pyridyl)-1-(6-methoxy-3-pyridyl)-1H-1,2,4-triazole-3-carbonyl]-4,4-difluoropiperidine] yielded an inhibition at 50 µM [1] of 4.6% and an IC50 [2] of 220 nM.

Work on `COc1ccc(-n2nc(C(=O)NC3(C)CC3)nc2-c2ccc(C)cn2)cn1` [Example 44, N-(1-Methylcyclopropyl)-1-(6-methoxy-3-pyridyl)-5-(5-methyl-2-pyridyl)-1H-1,2,4-triazole-3-carboxamide] yielded an IC50 [2] of 220 nM.
